For one assay, the system named is IL-6. Briefly: IL-6 of spleen cells from dosed mice (MH60 cells). Type of assay: in vivo, NIH mice. Particulars: 0.02 g/kg, 10 days. As to the method:
70 NIH mice, 18-22 g weight, half male and half female, were divided into 7 groups at random. All the groups were drenched with the correspondent medicines (fengshiping and the other medicines). The medicines were drenched once a day for 10 days. 24 hours after the last administration, all the mice were killed and sampled the macrophage and spleen cells from the abdominal carvity. The IL-1 and IL-6 in the samples were measured.
The spleen cells were sampled in the asepsis condition. Then the samples were washed by the Hank's liquor for 2 times and nonserum RPMI1640 liquor for 1 time. Then the clear samples were adjusted to the 2×10^6/ml cell suspension with 5% FCS-RPMI liquor. 1 ml of the suspension was added to the round-bottom centrifuge tube. After adding the ConA (10 ng/ml), the samples were cultured in the 5% CO2 at 37° C. for 72 hour.
The MH60 cells, which grew depending on the IL-6 and were on the logarithmic growth stage, were adjusted to the 1×10^5/ml cell suspension with the 5% FC-RPMI1640.
The 96-hole flat bottom cell culturing batten was added with the MH60 cell suspension on the quantity of 100 μl/hole and the culturing supernate 25 μl/hole. Then the fluid in each hole was adjusted to the 200 μl with the 5% FCS-RPMI 1640. […] And then they were measured the OD at the wavelength 570 nm and 630 nm. […]

The test system of the next assay is DTH caused by DNFB. Description: Delayed hypersensitivity (DTH) caused by DNFB in the mouse ear. Type of assay: in vivo, NIH mouse. As to the method:
Each mouse was led to hypersensitivity reaction by using the 1% DNFB acetone solution on the dosage of 0.025 ml at the right place of the abdomen where the pilus had been cut yet. Using the same solution on the same place was to enhance the hypersensitivity reaction on the third day. On the fifth day, all the mice were smeared with the 1% DNFB edible oil solution at the mice's right ears on the dosage of 0.01 ml each. 24 hours later, all the mice were killed. The mouse's 2 ears were weighted by the torsion balance and the difference of the 2 ears was recorded as the DTH degree caused by the DNFB. The experiment was carried out on the different immune and administration processes.
The immune and administration processes is as following: [drawing 1]

Another assay has as its system hemolysin antibody. Briefly: Hemolysin antibody caused by chick RBC, ICR mouse. Particulars: 0˜7. It counts as in vivo. As to the method: 190 mice, 18-22 g weight, half male and half female, were divided into 19 groups. Each mouse was immunized with 5% CRBC solution 0.2 ml. The Fengshiping solutions were drenched at the different times. 7 days after the immunization, all the mice were sampled the blood from the eyes. Then the blood samples were diluted and measured the level of the hemolysin antibody.

The subject of the next assay is TNF α. Briefly: TNF α level of cultured cells from dosed mice. It counts as in vivo, ICR mice. Particulars: 0.02 g/kg, 10 days. As to the method:
60 ICR mice, 1822 g, half male and half female, were divided into 6 groups at random. Each group was drenched of the correspondent medicines including the different dosages of Fengshiping and the other medicines. The medicines were administrated once a day for 10 days. 24 hours after the last administration, the mice were sampled the macrophage and spleen cells from the abdominal cavity in the aseptic condition. The samples were washed with Hank's liquor for 2 times and non-serum RPIM 1640 liquor for 1 time. Then the washed samples were diluted to the suspension with the 5% FCS-RPMI 1640 at the concentration of 2×10^8/ml. Then the suspensions were added with 10 ng/ml LPS or the 10 ng/ml ConA and cultured in the 5% CO2 condition for 48 hours at 37° C. Then the cultured suspension were measured the TNF α and IL-2 levels on the usual methods.
The batten was coated by mouse TNF-α monoclonal antibody. The batten was added with the cultured supernate on the dose of 50 μl/hole. Then the batten was put still for 60 minutes at the room temperature. Then the batten was added with biotin antibody mark at 25° C. for 2 hours. Then the enzyme labeled avidin was added into the batten for 30 minutes. […] The mixed liquor was measured the OD value at the wavelength of the 450 nm. The content of the TNF-α (ng/ml) was calculated on the data of OD value by the method of standard curve.

The next assay has as its system spleen cells. Description: Lymphocyte transformation induced by ConA. It counts as in vivo, NIH mice. The following applies: 0.02 g/kg. As to the method:
80 NIH mice, half male and half female, were divided into 8 groups randomly and drenched with the correspondent medicines once a day for 10 days. 24 hours after the last administration, all the mice were killed to sample the spleen cells aseptically. Then the samples were washed by the Hank's liquor for 2 times and nonserum RPMI1640 liquor for 1 time. Then the clear samples were adjusted to the 2×10^6/ml cell suspension with 5% FCS-RPMI liquor. The 96-hole flat bottom cell culturing batten was added with the cell suspension on the quantity of 100 μl/hole. Each sample was cultured with 3 copies. 2 holes were added in 2 ng ConA each as the stimulating reagent. The other hole was not added in the ConA and kept as the control hole. The batten was cultured in 5% CO2 at 37° C. for 72 hours. 14 hours before the end of the culture, each hole was added in 3H-TdR 0.1μ Ci. The cells were harvested by the multihead cell harvesting instrument and measured the cpm value. The average value was adopted as the sample's cpm value. The average value and the stimulating index of the different groups were compared directly. The stimulating index was calculated as following: […]

Another assay concerns CD4, CD8 cells. Briefly: CD4 and CD8 cells of the spleen. It counts as in vivo, ICR mice. The following applies: 0.02 g/kg. The method, then: The experiment was same to 5.1. 24 hours after the last administration, the spleen cell samples were made into the 2×10^8/ml cell suspension with 5% FCS-RPIM1640. The quantity of CD4, CD8, NK cells and the rate CD4/CD8 were measured on the usural method.
The spleen cell suspension 50 μl was added on the glass to made the cell smear. The glass had been coated by the polylysine. The T cell of the mouse was set as the positive control sample. The cell smear was enveloped by the serum of the normal mouse after it was fixed by the acetone. Then the enveloped sample was added with the antibody of CD4 and CD8 which were marked by the hominine biotin. It was incubated at 37° C. for 2 hours. Then the sample was added with the avidin labeled by enzyme and put still for 10 min. After added with the substrate for 10 min, the mixed sample was washed and dyed with the hematoxylin for 2 min. Then the sample was dyhidrated with the grade-alcohol and enveloped with gelatin-glycetrol. 200 cells in the smear were chosen as the research target under the high power microscope. [formula]

[1] abbreviates: 0.05 g/kg, administration day −2˜0.
Where [2] appears, read: 0.05 g/kg, administration day −2˜2.
The mark [3] stands for this setting: 0.1 × 3 g/kg, 0, 2, 4 day once a day.

Regarding `O=P1(N(CCCl)CCCl)NCCCO1` (stereo not shown) [cyclophosphane], in the assay with IL-6, the IL-6 turned out to be 49.6 ± 6.7 IU/ml. In the assay with DTH caused by DNFB (setting [1]), the “Percent of ear swelling” value worked out at 37.47 ± 6.71 and the Percent of inhibition is listed as 11.7%. In the assay on DTH caused by DNFB (setting [2]), the “Percent of ear swelling” value stood at 39.40 ± 10.78 and the Percent of inhibition was determined as 8.1%. Further, in the assay with DTH caused by DNFB (setting [3]), the “Percent of ear swelling” value was 23.00 ± 7.65 and the Percent of inhibition was determined as 40.3%. Also, in the assay with DTH caused by DNFB (0.25 g/kg, −3 d), the “Percent of ear swelling” value was determined as 41.84 ± 7.75 and the Percent of inhibition is −8.7%. In the assay on hemolysin antibody (Table 3.2, 0.02 g/kg), this compound showed a Hemolysin value of 27.80 ± 6.60 and an Inhibiting percent of 77.9%. In the assay with hemolysin antibody (Table 3.3, 0.02 g/kg), this compound yielded a Hemolysin value of 25.0 ± 4.0 and an Inhibiting percent of 90.2%. The TNF with TNF α came out at 42.20 ± 9.57 pg/mL. Also, in the assay with spleen cells, the Stimulating index is recorded as 13.66 ± 2.28 and the cpm stood at 9922 ± 1145 cpm. In the assay on CD4, CD8 cells, the CD4 amounted to 11.50 ± 2.50 %, the CD4/CD8 was determined as 2.91 ± 0.53 and the CD8 came out at 4.10 ± 1.20 %.

(Values after patent publication US20050220906A1, “Pharmaceutical composition for treating rheumatism and the preparation thereof” (priority 2002, published 2005).)
